Test results from patent publication US12440466B2, “Fatty acid derivatives for treating non-alcoholic steatohepatitis” (BASF AS, priority 2017, dated 2025).
Marks after values point to notes of the source that are not given here.

Tests used:
[1] = system: CETP; test: CETP expression in APOE*3.CETP mice; format: in vivo, mouse; details: Compound A
[2] = system: genes regulating extracellular matrix (ECM) stability or fibrolysis; test: Hepatic ECM stability/fibrolysis gene expression by RNA sequencing in ob/ob AMLN mice; format: in vivo, mouse; details: 4 weeks, Compound A 112 mg/kg, pioglitazone 30 mg/kg
Procedure: (§1) Obese diet-induced B6.V-Lepob/Jrj mice (ob/ob) are consistently fibrosis (liver) prone when cholesterol (2%), 40% fat (containing 18% trans-fatty acids) and 20% fructose are added to a high-caloric diet (i.e., AMLN high-fat diet). ob/ob mice on AMLN diet (termed ‘ob/ob AMLN mice’) develop steatohepatitis and fibrosis within a shorter timeframe ([…]) compared with wild-type C57BL/6 mice (AMLN mice) fed the same diet. ob/ob AMLN mice provide an obese diet-induced model of NASH that also allows the study of effects on glycemic control. Development of NASH in the ob/ob AMLN model is confirmed by biopsy.
In Biological Examples 10-12, 15, and 19, studies were performed in male ob/ob mice (5 weeks old) fed an AMLN high-fat diet for 15 weeks, then randomized into 3 groups (n=10 per group) to receive either 112 mg/kg bw per day of Compound A via diet, 30 mg/kg bw per day pioglitazone via diet or no treatment (vehicle) for a further 4 weeks. An oral glucose tolerance test (OGTT) was performed at week 3. Hepatic fibrosis was assessed via measurements of hepatic fibrogenic/fibrolytic gene expression by RNA sequencing at 4 weeks.

[3] = system: ob/ob AMLN mice; test: Plasma ALT and AST (hepatocellular damage) in ob/ob AMLN mice; format: in vivo, mouse; details: 8 weeks
Procedure: as §1
In Biological Examples 10, 13-14, and 16-18, studies were performed in male ob/ob mice (5 weeks old) fed an AMLN high-fat diet for 18 weeks, then randomized into 6 groups (n=10 per group) to receive either Compound A (at 3 different daily doses, 45 mg/kg, 90 mg/kg or 135 mg/kg) via diet, 30 mg/kg bw per day obeticholic acid (OCA) via diet, or no treatment (vehicle) for a further 8 weeks. Assessment of NASH related parameters and fibrosis was made at study end by quantitative immune histochemistry (IHC) measurements.
To assess the effects of Compound A and pioglitazone on hepatocellular injury or damage in ob/ob AMLN mice, plasma alanine aminotransferase (ALT) and aspartate transaminase (AST) were measured after 8 weeks of administration.

[4] = system: Col1a1 mRNA; test: Hepatic Col1a1 mRNA expression by qPCR, CDAA/high-fat diet mouse model; format: in vivo; details: CDAA/high-fat fed mice
Source text: Mice were fed either choline-sufficient (CS) or choline deficient high-fat diets (31% total calories; “CDAA/high-fat”). The NASH inducing diet was instigated 6 weeks prior to the commencement of treatment in order to design the study as a treatment/reversal set-up rather than prophylaxis.
(§2) After 6 weeks of either the CS- or CDAA diet, mice were orally administered Compound A or comparison Compound N, both at 2 doses, 0.15 mmol/kg bw/day (low-dose, LD) and 0.3 mmol/kg bw per day (high-dose, HD). The test substances were administered orally as admix to the high-fat diet. Hepatic fibrosis was assessed by both measurement of hydroxyproline (HYP) content and Sirius Red (SR) morphometry. Fibrosis, inflammation and metabolism related transcripts levels were measured by quantitative real-time polymerase chain reaction (qPCR).
Studies were performed in male C56BL/6J mice (9 weeks old). Mice were divided into 6 experimental groups (n=9 per group) containing either CS or CDAA/high-fat diets, as described above. The NASH inducing CDAA/high fat diet was instigated 6 weeks prior to the commencement of treatment in order to assess treatment/reversal rather than prophylaxis. […] Compound A was administered orally as admix to the high-fat diet whilst GLP-1 agonist was delivered via intraperitoneal injection (i.p.). Fibrosis, inflammation and metabolism related transcripts levels were measured by quantitative real-time polymerase chain reaction (qPCR) in isolated liver tissue.

[5] = system: CDAA/high-fat fed mice; test: Hepatic fibrosis by Sirius Red (SR) morphometry, CDAA/high-fat diet mouse model; format: in vivo
Procedure: (§3) In Biological Examples 1-7, studies were performed in male C56BL/6J mice (9 weeks old). Mice were fed either choline-sufficient (CS) or choline deficient high-fat diets (31% total calories; “CDAA/high-fat”). The NASH inducing diet was instigated 6 weeks prior to the commencement of treatment in order to design the study as a treatment/reversal set-up rather than prophylaxis.
In Biological Examples 1-5, mice were divided into 6 experimental groups (n=9 per group) and fed either CS or CDAA/high-fat diets. […] Hepatic fibrosis was assessed by both measurement of hydroxyproline (HYP) content and Sirius Red (SR) morphometry. Fibrosis, inflammation and metabolism related transcripts levels were measured by quantitative real-time polymerase chain reaction (qPCR).
In order to more accurately quantify the amount location and functional relevance of the hepatic fibrosis, Sirius Red (SR) morphometry was performed. In contrast to examples 1 and 2 where biochemical assessment of hydroxyproline (HYP) content measuring collagen in the large vessels was used, SR morphometry quantifies the more functionally relevant sinusoidal collagen deposits. 10 areas per slide were measured using 100× magnification.

[6] = system: CDAA/high-fat fed mice; test: Hepatic hydroxyproline (HYP) content, CDAA/high-fat diet induced NASH mouse model; format: in vivo
Source text: Mouse models that are deficient in methionine and/choline (MCD and CDAA respectively) are well established for studying the development and treatment of NASH in pre-clinical drug development. As precursors for the synthesis of phosphatidylcholine, a dietary deficiency of methionine/choline leads to an inability to synthesize hepatic lipoproteins for the export of triglyceride that results in severe hepatic steatosis, inflammation and fibrosis.
Although the widely used methionine-choline deficient (MCD) diet consistently reproduces severe NASH-like hepatic inflammation and fibrosis in mice, it is also associated with severe weight-loss (loss of both skeletal muscle and fat mass). This is associated with an increased risk of death which presents major problems for long-term fibrogenesis experiments.
as §3
as §2, with “In Biological Examples 1-5, mice were divided into 6 experimental groups (n=9 per group) and fed either CS or CDAA/high-fat diets. After” for “After”

CC/C=C\C/C=C\C/C=C\C/C=C\C/C=C\CCCCOC(CC)C(=O)O (stereo not drawn) [Compound A, 2-((5Z,8Z,11Z,14Z,17Z)-icosa-5,8,11,14,17-pentaenyloxy)butanoic acid] was tested, and the CETP expression [1] was “significantly reduce CETP expression”, the “hepatic expression of LOX-like 2 (LOXL2)” value [2] was “significantly reduced” and the “hepatic expression of LOXL1” value [2] was “significantly reduced”. For the same compound, the “hepatic expression of TIMP1” value [2] was “significantly reduced”, the “hepatic expression of lysyl-oxidase (LOX)” value [2] was “significantly reduced” and the “plasma ALT” value ([3]; Compound A 90 mg/kg, p<0.01) was “marked and significant reduction”. For the same compound, the “plasma AST” value ([3]; Compound A 90 mg/kg, p<0.05) was “significantly reduced”, the “plasma ALT” value ([3]; Compound A 135 mg/kg, p<0.001) was “marked and significant reduction” and the “plasma AST” value ([3]; Compound A 135 mg/kg, p<0.01) was “significantly reduced”. For the same compound, the “Col1a1 (relative mRNA expression)” value ([4]; Compound A 0.3 mmol/kg bw/day oral, GLP-1a 0.4 mg/kg once weekly i.p., alone or combined) was 6.2***, the “Col1a1 (relative mRNA expression)” value ([4]; HD 0.3 mmol/kg bw per day) was 6*** and the “Col1a1 (relative mRNA expression)” value ([4]; LD 0.15 mmol/kg bw/day) was 10***. For the same compound, the “Fibrosis area (mean %)” value ([5]; HD 0.3 mmol/kg bw per day) was 1.56* %, the “Fibrosis area (mean %)” value ([5]; LD 0.15 mmol/kg bw/day) was 0.76*** % and the “Hydroxyproline (μg) content per 100 mg liver” value ([6]; HD 0.3 mmol/kg bw per day orally as admix to diet) was 37 μg HYP/per 100 mg liver. For the same compound, the “Hydroxyproline (μg) content per 100 mg liver” value ([6]; LD 0.15 mmol/kg bw/day orally as admix to diet) was 38 μg HYP/per 100 mg liver, the “Hydroxyproline (μg) content per liver” value ([6]; high dose (HD) 0.3 mmol/kg bw per day orally as admix to diet) was 750** μg and the “Hydroxyproline (μg) content per liver” value ([6]; low dose (LD) 0.15 mmol/kg bw/day orally as admix to diet) was 800* μg.
